Patent US20260042747A1, “KIT INHIBITORS, COMPOUNDS, PHARMACEUTICAL COMPOSITIONS, AND METHODS OF USE THEREOF” (Alivexis, Inc., priority 2022, published 2026)
Structures can show the parent of a compound that is named as a salt.

Biological target: recombinant human KIT tyrosine kinase protein (Homo sapiens (Human), UniProt P10721)
Test: KIT tyrosine kinase assay (ADP-Glo)
Type: biochemical
Details: @10 uM
Procedure: An in vitro assay utilizing the recombinant human KIT tyrosine kinase protein was developed to measure compound inhibition of KIT. KIT tyrosine kinase activity was measured by the ADP-Glo Kinase Assay system with poly […]) peptide substrate. Kinase Assay was performed in white 384-well plates and the luminescence was measured by Victor X5 Multilabel Counter (Perkin Elmer). Recombinant intracellular domain of human KIT protein was purchased from Carna Biosciences (Kobe, Japan). Poly […]) peptide was purchased from Sigma-Aldrich (St. Louis, Missouri, USA). ADP-Glo Kinase Assay reagent was purchased from Promega (Madison, Wisconsin, USA). Each test compound was dissolved in 100% DMSO to prepare 10 mM stock solutions. […] After the preincubation, 3 μL of substrate/ATP mixture was added and incubated for 1 hour at room temperature. The tyrosine phosphorylation by KIT kinase was quantified by ADP-Glo kinase assay kit following the manufacturer's protocol. Briefly, the phosphorylation reaction was terminated by adding 10 μL ADP-Glo reagent and incubated for 60 minutes at room temperature. 20 μL of Kinase Detection Reagent was added to each well and luminescence was measured by plate reader. […] Half maximal inhibitory concentration (IC50) was calculated by a Four […] Logistic Regression model using GraphPad Prism (GraphPad Software). The value without recombinant KIT protein and without test compound was used as a negative control (assay background).

Sequence of recombinant human KIT tyrosine kinase protein (P10721 546-976): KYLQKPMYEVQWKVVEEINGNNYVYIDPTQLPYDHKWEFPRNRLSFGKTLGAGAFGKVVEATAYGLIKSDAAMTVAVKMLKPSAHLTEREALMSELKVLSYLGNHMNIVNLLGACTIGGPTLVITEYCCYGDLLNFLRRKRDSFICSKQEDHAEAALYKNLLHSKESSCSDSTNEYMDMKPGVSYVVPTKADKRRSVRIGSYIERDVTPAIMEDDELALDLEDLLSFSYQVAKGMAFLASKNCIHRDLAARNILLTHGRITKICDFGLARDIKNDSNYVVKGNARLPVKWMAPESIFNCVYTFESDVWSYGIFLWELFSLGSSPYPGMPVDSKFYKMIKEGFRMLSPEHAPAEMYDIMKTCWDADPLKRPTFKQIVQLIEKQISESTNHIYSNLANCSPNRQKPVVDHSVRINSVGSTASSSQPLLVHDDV

Compound | KIT % at single concentration (printed in KIT IC50 column) [%@10 uM]
CC(c1ccc(CNC(=O)c2ccc3c(c2)[nH]c(=O)n3C)cn1)N1CCC(C(F)(F)F)C1 (stereo not shown) [Example 112, 1-Methyl-2-oxo-N-((6-(1-(3-(trifluoromethyl)pyrrolidin-1-yl)ethyl)pyridin-3-yl)methyl)-2,3-dihydro-1H-benzimidazole-5-carboxamide] | 59

Same assay, conditions: Table 98

Compound | IC50 [nM]
Cn1c(=O)[nH]c2cc(C(=O)NCc3ccc(Oc4ccc(F)c(F)c4)nc3)ccc21 [Example 37] | 310
C[C@H](NC(=O)c1ccc2c(c1)[nH]c(=O)n2C)c1ccc(N(C)c2ccccc2F)nc1 [Example 88] | 98
CN1CCC(N(C)c2ccc(CNC(=O)c3ccc4c(c3)[nH]c(=O)n4C)cn2)CC1 [Compound 24, 1-Methyl-N-((6-(methyl(1-methylpiperidin-4-yl)amino)pyridin-3-yl)methyl)-2-oxo-2,3-dihydro-1H-benzimidazole-5-carboxamide] | 340
Cn1c(=O)[nH]c2cc(C(=O)NCc3ccc(Oc4c(F)cccc4F)nc3)ccc21 [Example 40] | 39
CC(C)N(C)c1cnc(CNC(=O)c2ccc3c(c2)[nH]c(=O)n3C)cn1 [Example 94] | 120
Cn1c(=O)[nH]c2cc(C(=O)NCc3cnc(NC4CCC(F)(F)CC4)s3)ccc21 [Compound 25, N-((2-((4,4-Difluorocyclohexyl)amino)thiazol-5-yl)methyl)-1-methyl-2-oxo-2,3-dihydro-1H-benzimidazole-5-carboxamide] | 360
CN1CCN(Cc2cccc(N(C)c3ccc(CNC(=O)c4ccc5c(c4)[nH]c(=O)n5C)cn3)c2)CC1 [Compound 26, 1-Methyl-N-((6-(methyl(3-((4-methylpiperazin-1-yl)methyl)phenyl)amino)pyridin-3-yl)methyl)-2-oxo-2,3-dihydro-1H-benzimidazole-5-carboxamide trifluoroacetate] | 270
Cn1c(=O)[nH]c2cc(C(=O)NCc3ccc(Oc4c(F)cc(F)cc4F)nc3)ccc21 [Example 42] | 27
CN(c1ccc(CNC(=O)c2ccc3c(c2)[nH]c(=O)n3C)cn1)C1CCOCC1 [Example 60] | 140
C[C@H](NC(=O)c1ccc2c(c1)[nH]c(=O)n2C)c1ccc(N(C)c2ccc(F)cc2)nc1 [Compound 13, (S)—N-(1-(6-((4-Fluorophenyl)(methyl)amino)pyridin-3-yl)ethyl)-1-methyl-2-oxo-2,3-d ihydro-1H-benzimidazole-5-carboxamide] | 40
CN(Cc1ccncn1)c1ccc(CNC(=O)c2ccc3c(c2)[nH]c(=O)n3C)cn1 [Example 81] | 150
C[C@H](NC(=O)c1ccc2c(c1)[nH]c(=O)n2C)c1ccc(Oc2ccc(Cl)cc2F)nc1 [Example 54] | 33
CC(NC(=O)c1ccc2c(c1)[nH]c(=O)n2C)c1ccc(Oc2ccc(Cl)cc2F)nc1 (stereo not shown) [Example 52] | 24
CCN(CC)c1ccc(CNC(=O)c2ccc3c(c2)[nH]c(=O)n3C)cn1 [Example 85] | 150
Cc1ccc(CN(C)c2ccc(CNC(=O)c3ccc4c(c3)[nH]c(=O)n4C)cn2)nc1 [Example 79] | 210
CN(c1ccc(F)cc1)c1ccc(CNC(=O)c2ccc3[nH]c(=O)[nH]c3c2)cn1 [Example 56] | 29
CN(Cc1ccccc1)c1ncc(CNC(=O)c2ccc3c(c2)[nH]c(=O)n3C)s1 [Example 91] | 120
CC(NC(=O)c1ccc2c(c1)[nH]c(=O)n2C)c1ccc(Oc2ccc(F)cc2F)nc1 (stereo not shown) [Compound 27, N-(1-(6-(2,4-Difluorophenoxy)pyridin-3-yl)ethyl)-1-methyl-2-oxo-2,3-dihydro-1H-benzi midazole-5-carboxamide] | 74
Cn1c(=O)[nH]c2cc(C(=O)NCc3cnc(Oc4ccc(F)cc4)s3)ccc21 [Compound 5, N-((2-(4-Fluorophenoxy)thiazol-5-yl)methyl)-1-methyl-2-oxo-2,3-dihydro-1H-benz imidazole-5-carboxamide] | 3200
CN(CC1CC(F)(F)C1)c1ncc(CNC(=O)c2ccc3c(c2)[nH]c(=O)n3C)s1 [Example 93] | 270

Compound | IC50 [nM]
Cn1c(=O)[nH]c2cc(C(=O)NCc3ccc(Oc4ccc(Cl)c(F)c4)nc3)ccc21 [Example 38] | 60
Cn1c(=O)[nH]c2cc(C(=O)NCc3cnc(Oc4ccc(F)cc4)cn3)ccc21 [Example 49] | 950
CC(NC(=O)c1ccc2c(c1)[nH]c(=O)n2C)c1ccc(Oc2ccc(F)c(F)c2)nc1 (stereo not shown) [Example 51] | 210
Cn1c(=O)[nH]c2cc(C(=O)NCc3cnc4c(c3)ncn4-c3ccccc3F)ccc21 [Example 101] | 3300
O=C(NCc1ccc(Nc2ccc(F)cc2)nc1)c1ccc2[nH]c(=O)[nH]c2c1 [Compound 8, N-((6-((4-Fluorophenyl)amino)pyridin-3-yl)methyl)-2-oxo-2,3-dihydro-1H-benzimidazole-5-carboxamide trifluoroacetate] | 190
Cn1c(=O)[nH]c2cc(C(=O)NCc3ccc(Oc4cc(F)ccc4F)nc3)ccc21 [Example 41] | 36
Cn1c(=O)[nH]c2cc(C(=O)NCc3ccc(OC4CCC(F)(F)CC4)nc3)ccc21 [Example 47] | 56
Cn1c(=O)[nH]c2cc(C(=O)NCc3ccc(C(F)c4ccc(F)cc4)nc3)ccc21 (stereo not shown) [Compound 16, N-((6-(Fluoro(4-fluorophenyl)methyl)pyridin-3-yl)methyl)-1-methyl-2-oxo-2,3-dihydro-1H-benzimidazole-5-carboxamide] | 61
Cc1cc(CNC(=O)c2ccc3c(c2)[nH]c(=O)n3C)cnc1Oc1ccccc1 [Example 43] | 140
C[C@H](NC(=O)c1ccc2c(c1)[nH]c(=O)n2C)c1ccc(Oc2cccc(F)c2F)nc1 [Example 55] | 37
CC(NC(=O)c1ccc2c(c1)[nH]c(=O)n2C)c1ccc(Oc2cccc(F)c2F)nc1 (stereo not shown) [Example 53] | 79
Cn1c(=O)[nH]c2cc(C(=O)NCc3ccc(Oc4ccc5cn[nH]c5c4)nc3)ccc21 [Example 44] | 120
Cn1c(=O)[nH]c2cc(C(=O)NCc3ccc(N(c4ccc(F)cc4)C4CC4)nc3)ccc21 [Compound 23, N-((6-(Cyclopropyl(4-fluorophenyl)amino)pyridin-3-yl)methyl)-1-methyl-2-oxo-2,3-dihy dro-1H-benzimidazole-5-carboxamide] | 78
Cc1cc(CNC(=O)c2ccc3c(c2)[nH]c(=O)n3C)cnc1Oc1ccc(F)cc1 [Example 45] | 130
Cn1c(=O)[nH]c2cc(C(=O)NCc3cnc4c(c3)ncn4-c3c(F)cccc3F)ccc21 [Compound 21, N-((3-(2,6-Difluorophenyl)-3H-imidazo[4,5-b]pyridin-6-yl)methyl)-1-methyl-2-oxo-2,3-dihydro-1H-benzimidazole-5-carboxamide trifluoroacetate] | 660
Cc1ccc(N(C)c2ccc(CNC(=O)c3ccc4c(c3)[nH]c(=O)n4C)cn2)cn1 [Example 63] | 37
Cn1c(=O)[nH]c2cc(C(=O)NCc3ccc(Oc4ccc5[nH]ncc5c4)nc3)ccc21 [Example 46] | 27
Cn1c(=O)[nH]c2cc(C(=O)NCc3ccc(N(C)[C@H]4C[C@H](C(F)(F)F)C4)nc3)ccc21 [Example 87] | 68
C[C@H](NC(=O)c1ccc2c(c1)[nH]c(=O)n2C)c1ccc(Oc2ccc(F)c(F)c2)nc1 [Compound 7, (S)—N-(1-(6-(3,4-Difluorophenoxy)pyridin-3-yl)ethyl)-1-methyl-2-oxo-2,3-dihydro-1H-benzimidazole-5-carboxamide] | 40

Same assay, conditions: Table 99

Compound | IC50 [nM]
CN(c1ccc(CNC(=O)c2ccc3c(c2)[nH]c(=O)n3C)cn1)C1CCC2(CC1)COC2 [Example 123] | 126
CC(NC(=O)c1ccc2c(c1)[nH]c(=O)n2C)c1ccc(N(C)C(C)C)nc1 (single isomer, unassigned) [130 Peak 2] | 1040
Cn1c(=O)[nH]c2cc(C(=O)NCc3ccc(NC4CCC(F)(F)CC4)nc3)ccc21 [Example 132] | 131
COC(=O)C(NC(=O)c1ccc2c(c1)[nH]c(=O)n2C)c1ccc(N(C)C(C)C)nc1 (stereo not shown) [Example 114a, Methyl 2-(6-(isopropyl(methyl)amino)pyridin-3-yl)-2-(1-methyl-2-oxo-2,3-dihydro-1H-benzimidazole-5-carboxamido)acetate] | 108
Cn1c(=O)[nH]c2cc(C(=O)NCc3ccc(OC4CC(F)(F)C4)nc3)ccc21 [Example 118] | 632
CC(C)N(C)c1ccc(C(NC(=O)c2ccc3c(c2)[nH]c(=O)n3C)c2ccccc2)cn1 (stereo not shown) [Example 113, N-((6-(Isopropyl(methyl)amino)pyridin-3-yl)(phenyl)methyl)-1-methyl-2-oxo-2,3-dihydr o-1H-benzimidazole-5-carboxamide] | 2000
CC(C)Oc1ccc(CNC(=O)c2ccc3c(c2)[nH]c(=O)n3C)cn1 [Example 117] | 274
CC(C)N(C)c1ccc(C(CO)NC(=O)c2ccc3c(c2)[nH]c(=O)n3C)cn1 (stereo not shown) [Example 114b, N-(2-hydroxy-1-(6-(Isopropyl(methyl)amino)pyridin-3-yl)ethyl)-1-methyl-2-oxo-2,3-dih ydro-1H-benzimidazole-5-carboxamide] | 317
CC(CO)N(C)c1ccc(CNC(=O)c2ccc3c(c2)[nH]c(=O)n3C)cn1 (stereo not shown) [Example 133] | 75
